Measured values reported in publication PMC6010064, “Discovery of curcumin inspired sulfonamide derivatives as a new class of carbonic anhydrase isoforms I, II, IX, and XII inhibitors” (Journal of Enzyme Inhibition and Medicinal Chemistry, 2017).
Read-outs that look alike come from different tables or passages of the source.

Legend:
Assay in all cases: stopped-flow CO2 hydrase assay
Assay type in all cases: biochemical
hCA II = biological target: T1, hCA II (Homo sapiens, UniProt P00918)
T1 construct: gene CA2; recombinant, obtained in-house as reported earlier
From the text: stopped-flow CO2 hydrase assay on hCA II

hCA XII = biological target: T2, hCA XII (Homo sapiens, UniProt O43570)
T2 construct: gene CA12; recombinant, obtained in-house as reported earlier
T2 sequence (O43570 25-354): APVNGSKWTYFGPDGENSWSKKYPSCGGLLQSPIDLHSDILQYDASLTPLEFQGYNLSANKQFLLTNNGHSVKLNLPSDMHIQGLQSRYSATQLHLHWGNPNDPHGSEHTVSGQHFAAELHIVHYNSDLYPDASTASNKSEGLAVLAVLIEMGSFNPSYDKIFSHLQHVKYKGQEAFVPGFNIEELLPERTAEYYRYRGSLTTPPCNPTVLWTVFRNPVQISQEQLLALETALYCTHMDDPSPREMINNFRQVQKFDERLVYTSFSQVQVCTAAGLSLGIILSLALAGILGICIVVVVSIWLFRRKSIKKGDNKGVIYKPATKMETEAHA
From the text: stopped-flow CO2 hydrase assay on hCA XII

hCA IX = biological target: T3, hCA IX (Homo sapiens, UniProt Q16790)
T3 construct: gene CA9; recombinant, obtained in-house as reported earlier
From the text: stopped-flow CO2 hydrase assay on hCA IX

hCA I = biological target: T4, hCA I (Homo sapiens, UniProt P00915)
T4 construct: gene CA1; recombinant, obtained in-house as reported earlier
T4 sequence (P00915 2-261): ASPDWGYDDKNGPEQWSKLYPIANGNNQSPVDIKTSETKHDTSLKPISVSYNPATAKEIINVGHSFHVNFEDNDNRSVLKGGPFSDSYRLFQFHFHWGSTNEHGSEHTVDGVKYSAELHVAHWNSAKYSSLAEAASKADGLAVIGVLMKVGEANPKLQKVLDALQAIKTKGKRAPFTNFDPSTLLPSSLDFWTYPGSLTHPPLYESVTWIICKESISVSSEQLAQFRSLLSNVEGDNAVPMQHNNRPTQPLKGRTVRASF
From the text: stopped-flow CO2 hydrase assay on hCA I

[1] = pH […] Hepes […], […] Na2SO4, CO2 substrate, […] min preincubation at room temperature

Row | Ki (hCA II) | Ki (hCA XII) | Ki (hCA IX) | Ki (hCA I) | Ki (hCA II; [1]) | Ki (hCA I; [1]) | Compound
1 | 7.9 nM | 6.1 nM | 2.3 nM | 417 nM | – | – | CC(C)Oc1ccc(/C=C/C(=O)/C=C/c2ccc(S(N)(=O)=O)cc2)cc1 [5a, 4-((1E,4E)-5-(4-isopropoxyphenyl)-3-oxopenta-1,4-dien-1-yl)benzenesulfonamide]
2 | 2.1 nM | 6.3 nM | 8.6 nM | 286 nM | – | – | COc1ccc(/C=C/C(=O)/C=C/c2ccc(S(N)(=O)=O)cc2)cc1 [5b, 4-((1E,4E)-5-(4-methoxyphenyl)-3-oxopenta-1,4-dien-1-yl)benzenesulfonamide]
3 | 4.7 nM | 7.4 nM | 7.5 nM | 848 nM | – | – | COc1ccc(/C=C/C(=O)/C=C/c2ccc(S(N)(=O)=O)cc2)c(OC)c1 [5c, 4-((1E,4E)-5-(2,4-dimethoxyphenyl)-3-oxopenta-1,4-dien-1-yl)benzenesulfonamide]
4 | – | 8.1 nM | 8.4 nM | 704 nM | 0.89 nM | – | COc1ccc(OC)c(/C=C/C(=O)/C=C/c2ccc(S(N)(=O)=O)cc2)c1 [5d, 4-((1E,4E)-5-(2,5-dimethoxyphenyl)-3-oxopenta-1,4-dien-1-yl)benzenesulfonamide]
5 | – | 52.2 nM | 2.3 nM | 295 nM | 0.75 nM | – | COc1ccc(/C=C/C(=O)/C=C/c2ccc(S(N)(=O)=O)cc2)cc1OC [5e, 4-((1E,4E)-5-(3,4-dimethoxyphenyl)-3-oxopenta-1,4-dien-1-yl)benzenesulfonamide]
6 | 3 nM | 71.8 nM | 2.4 nM | – | – | 192 nM | COc1ccc(/C=C/C(=O)/C=C/c2ccc(S(N)(=O)=O)cc2)c(OC)c1OC [5f, 4-((1E,4E)-3-oxo-5-(2,3,4-trimethoxyphenyl)penta-1,4-dien-1-yl)benzenesulfonamide]
7 | 0.87 nM | 7.4 nM | 2.4 nM | 904 nM | – | – | COc1cc(OC)c(/C=C/C(=O)/C=C/c2ccc(S(N)(=O)=O)cc2)c(OC)c1 [5g, 4-((1E,4E)-3-oxo-5-(2,4,6-trimethoxyphenyl)penta-1,4-dien-1-yl)benzenesulfonamide]
8 | 8.8 nM | 25 nM | 7.8 nM | 595 nM | – | – | COc1cc(/C=C/C(=O)/C=C/c2ccc(S(N)(=O)=O)cc2)cc(OC)c1OC [5h, 4-((1E,4E)-3-oxo-5-(3,4,5-trimethoxyphenyl)penta-1,4-dien-1-yl)benzenesulfonamide]
9 | 8.1 nM | 31.1 nM | 87.3 nM | 373 nM | – | – | NS(=O)(=O)c1ccc(/C=C/C(=O)/C=C/c2ccc(Cl)cc2)cc1 [5i, 4-((1E,4E)-5-(4-chlorophenyl)-3-oxopenta-1,4-dien-1-yl)benzenesulfonamide]
10 | 8.2 nM | 68 nM | 61 nM | 246 nM | – | – | COc1ccc(/C=C/C(=O)/C=C/c2ccc(S(N)(=O)=O)cc2)c(F)c1 [5j, 4-((1E,4E)-5-(2-fluoro-4-methoxyphenyl)-3-oxopenta-1,4-dien-1-yl)benzenesulfonamide]
